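Grown in 96-well plates, cells were treated for 48 hours with each compound at five concentrations. Insufficient inhibition: endpoint recorded as highest concentration tested. GI50: concentration for 50% inhibition of growth. The concentration for full growth arrest is given as TGI.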
Experiments:
Test in all cases: DTP human tumour cell line panel, 48 h
[1] = test system: MDA-MB-435
[2] = test system: SK-OV-3 ovarian
[3] = test system: OVCAR-5 ovarian
[4] = test system: CCRF-CEM leukemia
[5] = test system: K-562 leukemia
[6] = test system: DU-145 prostate
[7] = test system: M14 melanoma
[8] = test system: HCT-116 colon
[9] = test system: CAKI-1 renal
[10] = test system: SW-620 colon
[11] = test system: HL-60(TB) leukemia
[12] = test system: SN12C renal
[13] = test system: HT29 colon
[14] = test system: SK-MEL-5 melanoma
[15] = test system: A498 renal
[16] = test system: HCC-2998 colon
[17] = test system: HS 578T breast
[18] = test system: ACHN renal
[19] = test system: NCI-H226 lung
[20] = test system: MALME-3M melanoma
[21] = test system: BT-549 breast
[22] = test system: 786-0 renal
[23] = test system: SF-539 CNS
[24] = test system: T-47D breast
[25] = test system: SNB-19 CNS
[26] = test system: MDA-MB-231 breast
[27] = test system: SNB-75 CNS
[28] = test system: UACC-257 melanoma
[29] = test system: A549 NSCLC
[30] = test system: SK-MEL-2 melanoma
[31] = test system: LOX IMVI melanoma
[32] = test system: NCI-H460 lung
[33] = test system: PC-3 prostate
[34] = test system: RXF 393 renal
[35] = test system: U251 CNS
[36] = test system: SF-295 CNS
[37] = test system: UACC-62 melanoma
[38] = test system: MOLT-4 leukemia
[39] = test system: HOP-62 NSCLC
[40] = test system: SF-268 CNS
[41] = test system: RPMI-8226 leukemia
[42] = test system: KM12 colon
[43] = test system: TK-10 renal
[44] = test system: HOP-92 NSCLC
[45] = test system: UO-31 renal
[46] = test system: NCI/ADR-RES ovarian
[47] = test system: MCF7 breast
[48] = test system: OVCAR-8 ovarian
[49] = test system: OVCAR-3 ovarian
[50] = test system: COLO 205 colon
[51] = test system: HCT-15 colon
[52] = test system: NCI-H522 lung
[53] = test system: NCI-H23 lung
[54] = test system: SK-MEL-28 melanoma
[55] = test system: SR leukemia
[56] = test system: OVCAR-4 ovarian
[57] = test system: IGROV1 ovarian

SMILES: COc1cccc(C(=O)c2sc(Nc3ccc(N4CCN(C(C)C)CC4)cc3)nc2N)c1
- GI50 [1]: 1.63 µM
- TGI [1]: 5.68 µM
- GI50 [2]: 5.91 µM
- TGI [2]: > 24.1 µM
- GI50 [3]: 0.769 µM
- TGI [3]: > 22.4 µM
- GI50 [4]: 0.788 µM
- TGI [4]: 4.41 µM
- GI50 [5]: 3.22 µM
- TGI [5]: > 22.1 µM
- GI50 [6]: 1.14 µM
- TGI [6]: > 25 µM
- GI50 [7]: 2.96 µM
- TGI [7]: 7.12 µM
- GI50 [8]: 0.845 µM
- TGI [8]: > 25 µM
- GI50 [9]: 1.01 µM
- TGI [9]: > 8.2 µM
- GI50 [10]: 0.853 µM
- TGI [10]: > 13.1 µM
- GI50 [11]: 0.661 µM
- TGI [11]: 2.73 µM
- GI50 [12]: 0.895 µM
- TGI [12]: 13.8 µM
- GI50 [13]: 0.997 µM
- TGI [13]: 12.8 µM
- GI50 [14]: 1.33 µM
- TGI [14]: 5.21 µM
- GI50 [15]: 2.33 µM
- TGI [15]: 8.24 µM
- GI50 [16]: 3.39 µM
- TGI [16]: 10.7 µM
- GI50 [17]: 2.42 µM
- TGI [17]: 11.4 µM
- GI50 [18]: 0.596 µM
- TGI [18]: > 25 µM
- GI50 [19]: 1.38 µM
- TGI [19]: > 22.8 µM
- GI50 [20]: 3.02 µM
- TGI [20]: 7.13 µM
- GI50 [21]: 3.62 µM
- TGI [21]: 7.55 µM
- GI50 [22]: 1.61 µM
- TGI [22]: 5.76 µM
- GI50 [23]: 1.55 µM
- TGI [23]: 4.65 µM
- GI50 [24]: 2.11 µM
- TGI [24]: 13.5 µM
- GI50 [25]: 1.04 µM
- TGI [25]: > 25 µM
- GI50 [26]: 1.84 µM
- TGI [26]: > 19.8 µM
- GI50 [27]: 2.02 µM
- TGI [27]: 5.34 µM
- GI50 [28]: 3.03 µM
- TGI [28]: 6.34 µM
- GI50 [29]: 1.22 µM
- TGI [29]: 12.5 µM
- GI50 [30]: 1.8 µM
- TGI [30]: 5.49 µM
- GI50 [31]: 1.22 µM
- TGI [31]: 4.88 µM
- GI50 [32]: 0.92 µM
- TGI [32]: 7.87 µM
- GI50 [33]: 0.892 µM
- TGI [33]: 10.9 µM
- GI50 [34]: 0.437 µM
- TGI [34]: 1.12 µM
- GI50 [35]: 0.949 µM
- TGI [35]: 7.1 µM
- GI50 [36]: 2.55 µM
- TGI [36]: 8.83 µM
- GI50 [37]: 2.84 µM
- TGI [37]: 6.21 µM
- GI50 [38]: 0.966 µM
- TGI [38]: 13.1 µM
- GI50 [39]: 1.57 µM
- TGI [39]: 11.9 µM
- GI50 [40]: 1.52 µM
- TGI [40]: 5.06 µM
- GI50 [41]: 1.34 µM
- TGI [41]: 6.52 µM
- GI50 [42]: 0.889 µM
- TGI [42]: 7.13 µM
- GI50 [43]: 1.34 µM
- TGI [43]: 9.19 µM
- GI50 [44]: 0.545 µM
- TGI [44]: 4.38 µM
- GI50 [45]: 1.4 µM
- TGI [45]: 7.16 µM
- GI50 [46]: 2.46 µM
- TGI [46]: > 22.9 µM
- GI50 [47]: 0.473 µM
- TGI [47]: 3.38 µM
- GI50 [48]: 1.49 µM
- TGI [48]: 24.8 µM
- GI50 [49]: 1.52 µM
- TGI [49]: 9.18 µM
- GI50 [50]: 0.694 µM
- TGI [50]: 3.53 µM
- GI50 [51]: 0.962 µM
- TGI [51]: > 25 µM
- GI50 [52]: 3.94 µM
- TGI [52]: 7.86 µM
- GI50 [53]: 1.42 µM
- TGI [53]: 8.01 µM
- GI50 [54]: 1.85 µM
- TGI [54]: 7.05 µM
- GI50 [55]: 0.478 µM
- TGI [55]: > 7.24 µM
- GI50 [56]: 3.48 µM
- TGI [56]: 16.2 µM
- GI50 [57]: 2.14 µM
- TGI [57]: > 18.6 µM

— PubChem BioAssay (NCI)
